Experiments:
GH29 fucosidase E1_10125 [1] = molecular target: T1, GH29 fucosidase E1_10125 (Mediterraneibacter gnavus, UniProt A0A6N3BKT0, D236A); experiment: STD NMR binding epitope mapping
T1 construct: gene hypBA2
T1 sequence (A0A6N3BKT0 35-583 D236A): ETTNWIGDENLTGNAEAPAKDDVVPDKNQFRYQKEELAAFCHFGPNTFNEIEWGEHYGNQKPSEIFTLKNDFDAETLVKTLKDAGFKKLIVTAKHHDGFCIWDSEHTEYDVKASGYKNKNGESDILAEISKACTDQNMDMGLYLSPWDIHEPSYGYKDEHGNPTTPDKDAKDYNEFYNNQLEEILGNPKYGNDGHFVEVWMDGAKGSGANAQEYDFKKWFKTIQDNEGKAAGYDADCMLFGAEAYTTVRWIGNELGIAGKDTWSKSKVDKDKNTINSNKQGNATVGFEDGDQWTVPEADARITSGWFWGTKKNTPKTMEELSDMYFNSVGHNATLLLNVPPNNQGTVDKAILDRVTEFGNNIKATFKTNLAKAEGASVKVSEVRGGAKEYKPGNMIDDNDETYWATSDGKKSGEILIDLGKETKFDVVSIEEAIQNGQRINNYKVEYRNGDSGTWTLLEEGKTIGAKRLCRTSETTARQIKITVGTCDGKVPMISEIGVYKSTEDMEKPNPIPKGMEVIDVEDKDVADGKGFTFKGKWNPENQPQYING

GH29 fucosidase E1_10125 [2] = molecular target: T1, GH29 fucosidase E1_10125; experiment: X-ray crystal structure ([…] Å) and ITC; type: binding
GH29 fucosidase E1_10125 [3] = molecular target: T2, GH29 fucosidase E1_10125 (Mediterraneibacter gnavus, UniProt A0A6N3BKT0, D236A); experiment: ITC; also STD NMR; type: binding
T2 construct: gene hypBA2

C[C@@H]1O[C@@H](O[C@H]2[C@H](O[C@@H]3O[C@H](CO)[C@H](O)[C@H](O)[C@H]3O)[C@@H](CO)OC(O)[C@@H]2O)[C@@H](O)[C@H](O)[C@@H]1O (stereo partly drawn) [3FL]
STD NMR binding epitope mapping (GH29 fucosidase E1_10125 [1]): The enzyme intimately recognized the three sugar residues constituting 3FL and LeA

C[C@@H]1OC(O)[C@@H](O)[C@H](O)[C@@H]1O (stereo partly drawn) [Fuc, L-fucose]
Kd (GH29 fucosidase E1_10125 [2]): 21.7 µM

CC(=O)N[C@H]1C(O)O[C@H](CO)[C@@H](O[C@@H]2O[C@@H](C)[C@@H](O)[C@@H](O)[C@@H]2O)[C@@H]1O[C@@H]1O[C@H](CO)[C@H](O)[C@H](O)[C@H]1O (stereo partly drawn) [LeA, Lewis A]
STD NMR binding epitope mapping (GH29 fucosidase E1_10125 [1]): The enzyme intimately recognized the three sugar residues constituting 3FL and LeA

CC(=O)N[C@H]1C(O)O[C@H](CO)[C@@H](O[C@@H]2O[C@H](CO)[C@H](O)[C@H](O)[C@H]2O)[C@@H]1O[C@@H]1O[C@@H](C)[C@@H](O)[C@@H](O)[C@@H]1O (stereo partly drawn) [LeX, Lewis X]
Kd (GH29 fucosidase E1_10125 [3]): 51.4 ± 1.93 µM

CC(=O)N[C@H]1[C@H]([C@H](O)[C@H](O)CO)O[C@@](O[C@H]2[C@@H](O)[C@@H](CO)O[C@@H](O[C@H]3[C@H](O[C@@H]4O[C@@H](C)[C@@H](O)[C@@H](O)[C@@H]4O)[C@@H](NC(C)=O)C(O)O[C@@H]3CO)[C@@H]2O)(C(=O)O)C[C@@H]1O (stereo partly drawn) [sLeX, 3′-Sialyl Lewis X]
Kd (GH29 fucosidase E1_10125 [3]): 3.59 ± 0.48 µM

CC(=O)N[C@H]1C(O)O[C@H](CO)[C@@H](O[C@@H]2O[C@H](CO)[C@H](O)[C@H](O[C@H]3O[C@H](CO)[C@H](O)[C@H](O)[C@H]3O)[C@H]2O)[C@@H]1O[C@@H]1O[C@@H](C)[C@@H](O)[C@@H](O)[C@@H]1O (stereo partly drawn) [αGal-LeX, α1–3Gal-Lewis X]
Kd (GH29 fucosidase E1_10125 [3]): 47.1 ± 5.6 µM

From PMC7872956, “Fucosidases from the human gut symbiont Ruminococcus gnavus” (Cellular and Molecular Life Sciences: CMLS, 2020)
